Experimental data: US6346613B1, “Composition and method for enhancing paracellular transport across cell layers” (Elan Corporation, plc, priority 1997, dated 2002)
Several values for one entry are separate records, joined by “and”; a condition that tells them apart may be missing. Equal entries are not always repeated.

Columns and labels:
[1] = test system: Caco-2 monolayers; assay: Transepithelial electrical resistance (TER) of Caco-2 monolayers on snapwells; type: cell-based, Human; design: unit not given beside the values; settings: Experiment 1, per snapwell, treatment with lipofectamine + oligonucleotide
Experimental: All solutions were warmed to 37° C. before use.

[2] = test system: polarized Caco-2 cells
Experimental: Human intestinal Caco-2 cells were grown using standard techniques well known to those skilled in the art. The cells were seeded onto polycarbonate filters (Costar Snapwells; diameter=12 mm; area=1.13 cm^2; pore size=0.4m) at a density of 0.5×10^6 cm^2. For antisense oligonucleotide studies, 18-25 day old cell monolayers were used which have transepithelial electrical resistance (TER) measurements in the range 200-400 cm^2.
All incubations were at 37° C. in 5% CO2 atmosphere. All solutions were warmed to 37° C. before use. The following procedure was carried out once a day over three days. After reading the TER, the cells were washed once and incubated in a reduced serum medium (RSM; Opti-MEM 1 with GlutaMax 1; Gibco-BRL) for 30 minutes. Meanwhile, the lipofectamine-oligonucleotide complex was allowed to form at room temperature. Lipofectamine (20 μl/snapwell; Gibco BRL CN. 18324-012) was mixed with occludin antisense DNA oligonucleotide, with occludin scrambled oligonucleotide or with water control in RSM.
The lipofectin:oligonucleotide complex was added to the apical surface of the snapwells and the cells were incubated for 2 hours. The apical and basolateral media were then replaced with normal medium (except on day 4). After the 2 hour incubation on day 3, transepithelial flux of ^3H-mannitol was measured.
Caco-2 cells were washed once in buffered Hank's balanced salt solution (bHBSS; Gibco CN.14065-031; supplemented with 0.011M glucose, 15 mM HEPES acid [3.575 g/l; Sigma CN.H3375], 10 mM HEPES base [2.603 g/l; Sigma CN. H1016]) and were incubated 30 minutes. The apical reservoir bHBSS was replaced with 1 ml buffered HBSS containing 1 μCi/ml of the hydrophilic marker ^3H-mannitol (New England Biolabs). […] The samples were added to 4 ml scintillation fluid and radioactivity for each vial counted on a scintillation counter.
Fully differentiated Caco-2 monolayers were grown as in Example 1. […] On day 4, [^3H]-mannitol was applied to the apical domain and flux was determined by measuring the radioactivity (cpm) transferred to the basolateral reservoir over 90 minutes as in Example 3. […]

[3] = Experiment 1, [3H]-mannitol, 90 minutes, Caco-2

Row | Substance | TER ([1]; listed as Lipofectamine + Occludin Antisense) | increase in flux relative to no oligonucleotide [2, 3] [fold] | increase in flux relative to occludin scrambled oligonucleotide [2, 3] [fold] | mean increase in [3H]-mannitol flux relative to control scrambled sequence antisense DNA ([2]; Experiment 2 (FIG. 2), 500 μM, Caco-2 monolayers on snapwells) [fold] | TER ([1]; listed as Lipofectamine + Scrambled Antisense)
1 | 5′ AAG AGG CCT GGA TGA CA 3′ (antisense AAGAGGCCTGGATGACA; chemistry not given here) [occludin antisense oligonucleotide] | 1260 and 1410 | 1.6 | 1.6 | 2.2 | 
2 | 5′ GCA AGT CAG GAC GTA GA 3′ (GCAAGTCAGGACGTAGA; chemistry not given here) [occludin scrambled oligonucleotide, reference compound] |  |  |  |  | 1280 and 1700
